20 compounds from patent publication US9745283B2, “Uracil derivatives as AXL and c-MET kinase inhibitors” (priority 2011, dated 2017) can be followed below.

For orientation: IC50 means the concentration that inhibits the measured activity by half.

Where two headings read alike, the source gives them in different places.

In experiment [1] the target is recombinant human baculovirus-expressed AXL (Homo sapiens (Human), UniProt P30530). The experiment can be described thus: AXL Kinase Assay (HTRF KinEASE). The experiment is classed as biochemical. The conditions noted are these: average of two or more determinations. As for the experimental part: The ability of compounds to inhibit the kinase activity of recombinant human baculovirus-expressed AXL was measured by homogeneous TRF (HTRF) using Cisbio's KinEASE™ assay system in white 384-well Optiplates. Assay buffer contained 1 mM DTT, 2 mM MnCl2, 2% DMSO, […] supplement enzymatic buffer, and 1× enzymatic buffer. A 2× concentration of tyrosine kinase (TK) substrate-biotin/ATP mixture made in assay buffer was added to plates at 10 μL/well using the Multidrop Combi (Thermo Fisher Scientific, Waltham, Mass.). […] Compounds (100 nL), diluted in 100% DMSO on the Biomek FX, (Beckman Coulter, Inc., Brea, Calif.), were transferred to the assay plates using the Biomek FX pintool (2.5% final DMSO in assay). […] Plates were sealed, briefly shaken and incubated at 25° C. for 30 minutes. […] Plates were sealed, briefly shaken and incubated at 25° C. for 1 hour.
Inhibition curves for compounds were generated by plotting percent control activity versus log 10 of the concentration of compound. IC50 values were calculated by nonlinear regression using the sigmoidal dose-response (variable slope) equation in GraphPad Prism as follows: y=bottom+(top−bottom)/(1+10(log IC50−x)*Hill Slope) where y is the % kinase activity at a given concentration of compound, x is the logarithm of the concentration of compound, bottom is the % of control kinase activity at the highest compound concentration tested, and top is the % of control kinase activity at the lowest compound concentration examined. The values for bottom and top were fixed at 0 and 100, respectively.
For orientation: TR-FRET usually uses a lanthanide donor and a delayed reading to cut background.

Experiment [2] deals with recombinant human baculovirus-expressed cMET (Homo sapiens (Human), UniProt P08581). Kind of experiment: C-MET Kinase Assay (HTRF KinEASE). Format: biochemical. Summed up:
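HTRF KinEASE format with recombinant human baculovirus-expressed cMET at 8 ng/mL, biotinylated peptide at 0.1 μM and ATP at 0.02 μM. IC50 came from percent control activity versus log concentration, fitted by nonlinear regression to a variable-slope sigmoidal equation with bottom fixed at 0 and top at 100.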

[3] abbreviates: average of two or more determinations, read-out: c-MET IC50.

`CCn1cc(C(=O)Nc2ccc(Oc3ccnc4cc(OC)c(OC)cc34)c(F)c2)c(=O)n(-c2ccc(F)cc2)c1=O` [Example 1, 1-Ethyl-3-(4-fluorophenyl)-2,4-dioxo-1,2,3,4-tetrahydropyrimidine-5-carboxylicacid [4-(6,7-dimethoxyquinolin-4-yloxy)-3-fluorophenyl]amide]: the IC50 in experiment [1] and in experiment [2] (setting [3]) was under 10 nM throughout.

On to `COc1cc2nccc(Oc3ccc(NC(=O)c4cn(C)c(=O)n(-c5ccc(F)cc5)c4=O)cc3F)c2cc1OC` [Example 2, 3-(4-Fluorophenyl)-1-methyl-2,4-dioxo-1,2,3,4-tetrahydropyrimidine-5-carboxylic acid [4-(6,7-dimethoxyquinolin-4-yloxy)-3-fluoro-phenyl]-amide], for which the IC50 in experiment [1] and in experiment [2] (setting [3]) was under 10 nM in each case.

For the compound `COCCn1cc(C(=O)Nc2ccc(Oc3ccnc4cc(OC)c(OC)cc34)c(F)c2)c(=O)n(-c2ccc(F)cc2)c1=O` [Example 3, 3-(4-Fluorophenyl)-1-(2-methoxyethyl)-2,4-dioxo-1,2,3,4-tetrahydropyrimidine-5-carboxylic acid [4-(6,7-dimethoxyquinolin-4-yloxy)-3-fluorophenyl]-amide], the IC50 in experiment [1] is under 10 nM; in experiment [2] (setting [3]), 10 to 100 nM.

Consider `CCOCCn1cc(C(=O)Nc2ccc(Oc3ccnc4cc(OC)c(OC)cc34)c(F)c2)c(=O)n(-c2ccc(F)cc2)c1=O` [Example 4, 1-(2-Ethoxyethyl)-3-(4-fluorophenyl)-2,4-dioxo-1,2,3,4-tetrahydropyrimidine-5-carboxylic acid [4-(6,7-dimethoxyquinolin-4-yloxy)-3-fluorophenyl]-amide], for which the IC50 in experiment [1] was under 10 nM; in experiment [2] (setting [3]), 10 to 100 nM.

`COc1cc2nccc(Oc3ccc(NC(=O)c4cn(C(C)C)c(=O)n(-c5ccc(F)cc5)c4=O)cc3F)c2cc1OC` [Example 5, 3-(4-Fluorophenyl)-1-isopropyl-2,4-dioxo-1,2,3,4-tetrahydropyrimidine-5-carboxylic acid [4-(6,7-dimethoxyquinolin-4-yloxy)-3-fluorophenyl]-amide]: the IC50 was under 10 nM in experiment [1] and 10 to 100 nM in experiment [2].

`COc1cc2nccc(Oc3ccc(NC(=O)c4cn(CC5CC5)c(=O)n(-c5ccc(F)cc5)c4=O)cc3F)c2cc1OC` [Example 6, 1-Cyclopropylmethyl-3-(4-fluorophenyl)-2,4-dioxo-1,2,3,4-tetrahydropyrimidine-5-carboxylic acid [4-(6,7-dimethoxyquinolin-4-yloxy)-3-fluorophenyl]-amide]: the 50% inhibitory concentration (IC50) in experiment [1] and in experiment [2] (setting [3]) was under 10 nM in each case.

With `COCCCn1cc(C(=O)Nc2ccc(Oc3ccnc4cc(OC)c(OC)cc34)c(F)c2)c(=O)n(-c2ccc(F)cc2)c1=O` [Example 7, 3-(4-Fluorophenyl)-1-(3-methoxypropyl)-2,4-dioxo-1,2,3,4-tetrahydropyrimidine-5-carboxylic acid [4-(6,7-dimethoxyquinolin-4-yloxy)-3-fluorophenyl]-amide], the results for the IC50 in experiment [1] and in experiment [2] (setting [3]) were under 10 nM and 10 to 100 nM, respectively.

For `COc1cc2nccc(Oc3ccc(NC(=O)c4cn(CC(C)C)c(=O)n(-c5ccc(F)cc5)c4=O)cc3F)c2cc1OC` [Example 8, 3-(4-Fluorophenyl)-1-isobutyl-2,4-dioxo-1,2,3,4-tetrahydropyrimidine-5-carboxylic acid [4-(6,7-dimethoxyquinolin-4-yloxy)-3-fluorophenyl]-amide], the IC50 is under 10 nM in experiment [1] and 10 to 100 nM in experiment [2] (setting [3]).

On to `C=CCn1cc(C(=O)Nc2ccc(Oc3ccnc4cc(OC)c(OC)cc34)c(F)c2)c(=O)n(-c2ccc(F)cc2)c1=O` [Example 9, 1-Allyl-3-(4-fluorophenyl)-2,4-dioxo-1,2,3,4-tetrahydropyrimidine-5-carboxylic acid [4-(6,7-dimethoxyquinolin-4-yloxy)-3-fluorophenyl]-amide], for which the IC50 in experiment [1] and in experiment [2] (setting [3]) was under 10 nM throughout.

As to `CCCn1cc(C(=O)Nc2ccc(Oc3ccnc4cc(OC)c(OC)cc34)c(F)c2)c(=O)n(-c2ccc(F)cc2)c1=O` [Example 11, 3-(4-Fluorophenyl)-2,4-dioxo-1-propyl-1,2,3,4-tetrahydropyrimidine-5-carboxylic acid [4-(6,7-dimethoxyquinolin-4-yloxy)-3-fluorophenyl]-amide], the figures for the IC50 in experiment [1] and in experiment [2] (setting [3]) were under 10 nM and 10 to 100 nM, respectively.

In the case of `COc1cc2nccc(Oc3ccc(NC(=O)c4cn(CC=C(F)F)c(=O)n(-c5ccc(F)cc5)c4=O)cc3F)c2cc1OC` [Example 14, 1-(3,3-Difluoro-allyl)-3-(4-fluorophenyl)-2,4-dioxo-1,2,3,4-tetrahydropyrimidine-5-carboxylic acid [4-(6,7-dimethoxyquinolin-4-yloxy)-3-fluorophenyl]-amide], the IC50 in experiment [1] and in experiment [2] (setting [3]) was under 10 nM throughout.

In the case of `COc1cc2nccc(Oc3ccc(NC(=O)c4cn(CCN5CCOCC5)c(=O)n(-c5ccc(F)cc5)c4=O)cc3F)c2cc1OC` [Example 16, 3-(4-Fluorophenyl)-1-(2-morpholin-4-yl-ethyl)-2,4-dioxo-1,2,3,4-tetrahydropyrimidine-5-carboxylic acid [4-(6,7-dimethoxyquinolin-4-yloxy)-3-fluorophenyl]-amide], the IC50 in experiment [1] and in experiment [2] (setting [3]) was under 10 nM throughout.

Regarding `COc1cc2nccc(Oc3ccc(NC(=O)c4c[nH]c(=O)n(-c5ccc(F)cc5)c4=O)cc3F)c2cc1OC` [Example 17, 3-(4-Fluorophenyl)-2,4-dioxo-1,2,3,4-tetrahydropyrimidine-5-carboxylic acid [4-(6,7-dimethoxyquinolin-4-yloxy)-3-fluorophenyl]-amide], the concentration for half-maximal inhibition (IC50) in experiment [1] and in experiment [2] (setting [3]) was under 10 nM each time.

`COc1cc2nccc(Oc3ccc(NC(=O)c4cn(C)c(=O)n(-c5ccc(F)cc5)c4=O)cc3)c2cc1OC` [Example 18, 3-(4-Fluorophenyl)-1-methyl-2,4-dioxo-1,2,3,4-tetrahydropyrimidine-5-carboxylic acid [4-(6,7-dimethoxyquinolin-4-yloxy)-phenyl]-amide]: the IC50 in experiment [1] was under 10 nM; in experiment [2] (setting [3]) it was 10 to 100 nM.

`COc1cc2nccc(Oc3ccc(NC(=O)c4cn(CCN(C)C)c(=O)n(-c5ccc(F)cc5)c4=O)cc3F)c2cc1OC` [Example 20, 1-(2-Dimethylaminoethyl)-3-(4-fluorophenyl)-2,4-dioxo-1,2,3,4-tetrahydropyrimidine-5-carboxylic acid [4-(6,7-dimethoxyquinolin-4-yloxy)-3-fluorophenyl]-amide]: the 50% inhibitory concentration (IC50) in experiment [1] is under 10 nM; in experiment [2] (setting [3]), 10 to 100 nM.

Regarding `COc1cc2nccc(Oc3ccc(NC(=O)c4cn(CCCOCc5ccccc5)c(=O)n(-c5ccc(F)cc5)c4=O)cc3)c2cc1OC` [Example 21, 1-(3-Benzyloxypropyl)-3-(4-fluorophenyl)-2,4-dioxo-1,2,3,4-tetrahydropyrimidine-5-carboxylic acid [4-(6,7-dimethoxyquinolin-4-yloxy)phenyl]-amide], the IC50 was under 10 nM in experiment [1] and 10 to 100 nM in experiment [2] (setting [3]).

As to `COc1cc2nccc(Oc3ccc(NC(=O)c4cn(CCCOCc5ccccc5)c(=O)n(-c5ccc(F)cc5)c4=O)c(F)c3)c2cc1OC` [Example 22, 1-(3-Benzyloxypropyl)-3-(4-fluorophenyl)-2,4-dioxo-1,2,3,4-tetrahydropyrimidine-5-carboxylic acid [4-(6,7-dimethoxyquinolin-4-yloxy)-2-fluorophenyl]-amide], the IC50 was under 10 nM in experiment [1] and 10 to 100 nM in experiment [2] (setting [3]).

Regarding `COc1cc2nccc(Oc3ccc(NC(=O)c4cn(C(C)C)c(=O)n(-c5ccc(F)cc5)c4=O)cc3)c2cc1OC` [Example 23, 3-(4-Fluorophenyl)-1-isopropyl-2,4-dioxo-1,2,3,4-tetrahydropyrimidine-5-carboxylic acid [4-(6,7-dimethoxyquinolin-4-yloxy)phenyl]-amide], the IC50 in experiment [1] and in experiment [2] (setting [3]) was under 10 nM each time.

For `COc1cc2nccc(Oc3ccc(NC(=O)c4c[nH]c(=O)n(-c5ccc(F)cc5)c4=O)cc3)c2cc1OC` [Example 24, 3-(4-Fluorophenyl)-2,4-dioxo-1,2,3,4-tetrahydropyrimidine-5-carboxylic acid [4-(6,7-dimethoxyquinolin-4-yloxy)phenyl]-amide], the IC50 in experiment [1] and in experiment [2] (setting [3]) was under 10 nM each time.

With `COc1cc2nccc(Oc3ccc(NC(=O)c4cn(CCN5CCCC5)c(=O)n(-c5ccc(F)cc5)c4=O)cc3F)c2cc1OC` [Example 26, 3-(4-Fluorophenyl)-2,4-dioxo-1-(2-pyrrolidin-1-yl-ethyl)-1,2,3,4-tetrahydropyrimidine-5-carboxylic acid [4-(6,7-dimethoxyquinolin-4-yloxy)-3-fluorophenyl]-amide], the results for the IC50 in experiment [1] and in experiment [2] (setting [3]) were under 10 nM and 10 to 100 nM, respectively.
